# In paper PMC11820896, “New Compounds with Enhanced Biological Activity Through the Strategic Introduction of Silylated Groups into Hydroxystearic Acids” (Molecules, 2025):
# Where two headings read alike, the source gives them in different places.
# Tests used:
# HT29 cells [1] = test: Cell cycle analysis by flow cytometry (PI); assay type: cell-based, human; conditions: 50 nM, 24 h
# Procedure: HT29 cells were treated with compound 4 for 24 h and then detached with 0.11% trypsin/0.02% ethylenediaminetetraacetic acid (EDTA) (Sigma-Aldrich, St. Louis, MO, USA), washed in PBS, and centrifuged. Cells were stained and analyzed according to […] al..
# HT29 = test: MTT assay, HT29 cells; assay type: cell-based, human; conditions: for IC50: Homo sapiens, HT-29, means of four experiments
# Procedure: (§1) The human colorectal adenocarcinoma (Caco-2), human colorectal adenocarcinoma (HT29), normal human intestinal (I407), human cervical cancer (HeLa), human breast cancer (MCF7), human bone osteosarcoma (U2OS), and human acute T-cell leukemia (Jurkat J6) cell lines were purchased from American Type Culture Collection (ATCC, Manassas, VA, USA). Cells were cultured in RPMI 1640 medium (Labtek Eurobio, Milan, Italy), supplemented with 10% FCS (Euroclone, Milano, Italy) and 2 mM L-glutamine (Sigma-Aldrich, Milano, Italy), at 37 °C and in a 5% CO2 atmosphere. The compounds were dissolved in DMSO in a 30–40 mM stock solution. In cell treatments, the final DMSO concentration never exceeded 0.1%.
# (§2) Cells were seeded in a 96-well culture plastic plate (Sarsted, Milan, Italy), at 5 × 10^4 cells/well and, after 24 h, were exposed to increasing concentrations of the different compounds (from 1 nM to 500 nM) dissolved in RPMI 1640 medium. An MTT assay was performed according to Micheletti et al..
# (§3) The absorbance at 570 nm was measured using a multi-well plate reader (Tecan, Männedorf, Switzerland), and data were analyzed by Prism GraphPad 8 software and expressed as IC50 nM.
# HCT116 = test: MTT assay, HCT116 cells; assay type: cell-based, human
# Procedure: Cells were seeded in a 96-well culture plastic plate (Sarsted, Milan, Italy), at 5 × 10^4 cells/well and, after 24 h, were exposed to increasing concentrations of the different compounds (from 1 nM to 500 nM) dissolved in RPMI 1640 medium. An MTT assay was performed according to […] al.. The absorbance at 570 nm was measured using a multi-well plate reader (Tecan, Männedorf, Switzerland), and data were analyzed by Prism GraphPad 8 software and expressed as IC50 nM.
# I407 = test: MTT assay, normal I407 cells; assay type: cell-based; conditions: Homo sapiens; normal intestinal line; MTT after 24 h of treatment; means of four experiments
# Procedure: as §1, §2, §3
# HT29 cells [2] = test: Western blot of γH2AX (DNA damage); assay type: cell-based, human; conditions: 50 nM, 6 h
# Procedure: (§4) HT29 were seeded at a density of 1.5 × 10^4 cell/cm^2 in a Petri dish and, after 24 h, treated for 6 h with 50 nM of compound 4. Cells were harvested, and histones were extracted by previously isolated nuclei according to […] al.. The proteins were resolved on a 10% gel in MES buffer at 200 V for 35 min and immunoblotted with mouse anti-acetylated lysines (Millipore, Billerica, MA, USA) or rabbit anti-γH2Ax (Santa Cruz Biotechnology, Dallas, TX, USA) primary antibodies. The membranes were developed with Clarity Western ECL Substrate (Bio-Rad, Hercules, CA, USA) after incubation with mouse or rabbit secondary horseradish peroxidase-conjugated antibody (GE Healthcare, Chicago, IL, USA). SDS-PAGE was stained with Coomassie Brilliant Blue R-250 (Bio-Rad, Hercules, CA, USA), while densitometric analyses were performed using a Fluor-S Max MultiImager (Bio-Rad, Hercules, CA, USA), and relative quantification of histone acetylation and histone H2Ax phosphorylation signals were normalized to the H1 signal as a control.
# [3] = system: histones H2/H3 and H4 of HT29 cells; test: Histone acetylation status, Western blot; assay type: cell-based, human; conditions: 50 nM, 6 h
# Procedure: as §4
# HT29 cells [4] = test: Mitochondrial potential by JC-1 staining; assay type: cell-based, human; conditions: 24 h treatment
# Procedure: JC-1 is a dye that is permeable to alive cells and is accumulated in the anionic mitochondrial matrix indicating the level of mitochondrial potential. When present at low concentrations, the JC-1 monomer fluorescence is green (around 535 nm), while at increased concentration, it can aggregate and fluoresces in the red (600 nm). The ratio between the red fluorescence and the green one is directly proportional to the mitochondrial activity. […] Negative controls were treated in the same way, but JC-1 was not added to these samples. The plates were read on the Ensight plate reader, exciting the red fluorescence at 506 nm and the green one at 488 nm, while the emission was, respectively, read at 595 nm and 535 nm, and the ratio between the red and green fluorescence was calculated.
# SCD1 = SCD1 protein, Western blot; assay type: cell-based, human; conditions: 50 nM, 48 h, HT29
# Procedure: HT29 cells were seeded at a density of 5.0 × 10^4 cells/cm^2 in a Petri dish and treated with 50 nM of compound 4 for 48 h. Cells were then washed with PBS and incubated with the lysis buffer radio immunoprecipitation assay (RIPA) at 4 °C for 15 min with agitation. The proteins were quantified using the Bio-Rad protein assay (Bio-Rad, Hercules, CA, USA) and analyzed by SDS-PAGE and Western blot.
# For the analysis of protein phosphorylation, protein samples (30 μg) were separated on 12% SDS-PAGE in Tris-glycine buffer by electrophoresis at 200 V for 1 h. […] Densitometric analysis was performed with ImageLab 6.1 software (Bio-Rad, Hercules, CA, USA), and bands were normalized to the respective total protein content. For SCD1 analysis, protein samples were resolved on a 10% gel in MOPS buffer at 200 V for 45 min. After electrophoresis and Western blot, the nitrocellulose membrane was incubated overnight at 4 °C with primary antibody anti-SCD1 (Biorbyt, Durham, NC, USA) diluted in PBS-TWEEN 20 0.1%. The membrane was incubated for 1 h with a secondary horseradish peroxidase-conjugated antibody (GE Healthcare, Chicago, IL, USA) and then detected as described above. Quantification was completed by a Fluor-S Max MultiImager (Bio-Rad, Hercules, CA, USA) using a β-tubulin signal as a control.
# [5] = system: human tumor cell lines (HT29, MCF-7, HeLa, U2OS, and J6); test: Antiproliferative activity in the series of human tumor cell lines; assay type: cell-based; conditions: MTT; concentration range of 10–500 nM
# Procedure: as §1, §2, §3
# U2OS = test: MTT assay, U2OS cells; assay type: cell-based; conditions: Homo sapiens, means of four experiments, na = not active, read-out: In vitro cytotoxic activity (IC50), U2OS
# Procedure: as §1, §2, §3
# Caco-2 = test: MTT assay, Caco-2 cells; assay type: cell-based, human; conditions: Homo sapiens, MTT after 24 h of treatment, means of four experiments
# Procedure: as §1, §2, §3
structure (smiles),measurement,setting,value
"CCCCCCCCC[C@H](CCCCCCCC(=O)O)O[Si](C)(C)C(C)(C)C [Compound 4, (R)-9-((tert-butyldimethylsilyl)oxy)octadecanoic acid]",decrease in G2/M phase,HT29 cells [1],80.3 ± 6.1%
same,decrease in S phase,HT29 cells [1],66.4 ± 8.9%
same,increase in the G0/G1 phase,HT29 cells [1],41.8 ± 0.2%
same,IC50,"HT29; MTT after 24 h of treatment, read-out: IC50 nM, HT29 (Table 2)",20.9 ± 0.21 nM
same,IC50,"HT29; MTT, na = not active, read-out: In vitro cytotoxic activity (IC50), HT29",20.3 ± 0.24 nM
same,"S.I. (Selective Index), HT29",HT29; versus normal I407 cells,2.96
same,IC50,"HCT116; Homo sapiens, HCT-116, MTT after 24 h of treatment, means of four experiments",21.49 ± 0.16 nM
same,"S.I. (Selective Index), HCT116",HCT116; versus normal I407 cells,2.88
same,IC50,I407,61.91 ± 0.26 nM
same,changes in the γH2AX marker,HT29 cells [2],does not induce any changes
same,acetylation state of histones H2/H3 and H4,[3],extended increase
same,change in mitochondrial potential,HT29 cells [4],does not lead to a change
same,SCD1 protein amount,SCD1,decrease in the amount of its protein product
same,antitumor activity across all cell lines tested,[5],showed antitumor activity
same,IC50,U2OS,36.81 ± 0.18 nM
same,IC50,Caco-2,23.39 ± 0.12 nM
